Experimental data from US20210214364A1, “sGC STIMULATORS” (Cyclerion Therapeutics, Inc., priority 2013, published 2021).

What follows are compounds tested against T1, soluble guanylate cyclase (sGC) endogenously expressed in HEK293 cells (Homo sapiens, UniProt Q02108+Q02153) (assay: sGC-HEK-cGMP assay with LC/MS detection (whole cell)). Details: 10 μM DETA-NONOate, 20 min, concentration eliciting 50% of high control response (30 μM Compound Y), read-out: sGC_HEK_LC MS EC50 Abs.
T1 construct: endogenously expressing soluble guanylate cyclase (sGC); endogenous in cells; host or cells: HEK293
T1 sequence (Q02153 1-619): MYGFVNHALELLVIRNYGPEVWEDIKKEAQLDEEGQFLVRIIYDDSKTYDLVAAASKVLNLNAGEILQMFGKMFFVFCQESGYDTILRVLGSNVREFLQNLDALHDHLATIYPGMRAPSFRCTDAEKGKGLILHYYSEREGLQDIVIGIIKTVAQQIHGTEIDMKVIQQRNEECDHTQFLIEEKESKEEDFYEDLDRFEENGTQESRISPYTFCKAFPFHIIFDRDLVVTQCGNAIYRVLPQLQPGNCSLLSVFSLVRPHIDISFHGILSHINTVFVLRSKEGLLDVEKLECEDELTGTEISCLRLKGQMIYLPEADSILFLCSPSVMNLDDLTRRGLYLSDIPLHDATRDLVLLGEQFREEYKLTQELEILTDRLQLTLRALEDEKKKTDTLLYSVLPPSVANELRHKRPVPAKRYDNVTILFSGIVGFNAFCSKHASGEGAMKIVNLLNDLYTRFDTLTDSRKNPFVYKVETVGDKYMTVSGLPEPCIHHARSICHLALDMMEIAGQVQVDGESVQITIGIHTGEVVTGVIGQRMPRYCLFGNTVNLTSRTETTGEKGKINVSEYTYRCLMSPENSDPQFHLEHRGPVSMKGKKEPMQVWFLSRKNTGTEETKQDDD
T1 sequence (Q02108 1-690): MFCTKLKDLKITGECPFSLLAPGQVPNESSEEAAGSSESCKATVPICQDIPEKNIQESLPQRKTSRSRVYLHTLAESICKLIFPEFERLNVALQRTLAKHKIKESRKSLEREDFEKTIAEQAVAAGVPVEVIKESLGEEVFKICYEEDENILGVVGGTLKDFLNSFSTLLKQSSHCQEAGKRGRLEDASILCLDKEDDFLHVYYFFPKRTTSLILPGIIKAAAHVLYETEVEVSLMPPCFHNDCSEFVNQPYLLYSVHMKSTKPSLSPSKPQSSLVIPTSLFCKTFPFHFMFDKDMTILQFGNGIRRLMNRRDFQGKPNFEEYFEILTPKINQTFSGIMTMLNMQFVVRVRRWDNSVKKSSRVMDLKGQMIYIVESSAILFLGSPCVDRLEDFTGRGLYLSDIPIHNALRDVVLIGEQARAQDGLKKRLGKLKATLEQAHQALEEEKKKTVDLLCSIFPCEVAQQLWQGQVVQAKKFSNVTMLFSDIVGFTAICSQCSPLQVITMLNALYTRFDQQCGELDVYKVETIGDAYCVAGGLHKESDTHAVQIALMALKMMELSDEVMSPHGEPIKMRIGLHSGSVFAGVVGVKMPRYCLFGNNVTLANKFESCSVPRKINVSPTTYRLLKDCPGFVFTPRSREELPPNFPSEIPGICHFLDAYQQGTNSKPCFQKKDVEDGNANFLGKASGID
Format: cell-based
Method: Example 2: Biological Activity Measurement by the sGC-HEK-cGMP Assay, with LC/MS Detection
Human embryonic kidney cells (HEK293), endogenously expressing soluble guanylate cyclase (sGC), were used to evaluate the activity of test compounds. Compounds stimulating the sGC enzyme should cause an increase in the intracellular concentration of cGMP. HEK 293 cells were seeded in Dulbecco's Modification of Eagle's Medium supplemented with fetal bovine serum (10% final) and penicillin (100 U/mL)/streptomycin (100 μg/mL) in a 50 μL volume at a density of 1.5×10^4 cells/well in a poly-D-lysine coated 384 well flat bottom plate. Cells were incubated overnight at 37° C. in a humidified chamber with 5% CO2. Medium was aspirated and cells were washed with 1× Hank's Buffered Saline Salt Solution (50 μL). Cells were then incubated for 15 minutes at 37° C. with 50 μL of a 0.5 mM 3-isobutyl-1-methylxanthine (IBMX) solution. Test article and Diethylenetriamine NONOate (DETA-NONOate) solutions (x […] concentration for test article solution and 10 μM concentration for DETA-NONOate solution; wherein x is one of the following concentrations);
were then added to the assay mixture and the resulting mixture incubated at 37° C. for 20 minutes. After the 20 minute incubation, the assay mixture was aspirated and 10% acetic acid containing 150 ng/mL+3-cGMP (internal standard for LCMS) (50 μL) was added to the cells. The plate was incubated at 4° C. for 30 minutes in the acetic acid solution to stop the reaction and lyse the cells. The plates were then centrifuged at 1,000 g for 3 minutes at 4° C. and the supernatant transferred to a clean reaction plate for LCMS analysis.
cGMP concentrations were determined from each sample using the LCMS conditions below (Table 2) and calculated standard curve. The standard curve was prepared in 10% acetic acid with 150 ng/mL+3cGMP (isotopically labelled cGMP with a weight 3 units higher than wild type) with the following final concentrations of cGMP in ng/mL: 1, 5, 10, 50, 100, 250, 500, 1000, 2000.
Data were normalized to a high control using the following equation: 100*(Sample−Low Control)/(High Control−Low Control), where the low control is the average of 16 samples treated with 1% DMSO, and the high control is the average of 16 samples treated with 30 μM of Compound Y depicted below. Data were fit using a 4-parameter fit (log(agonist) vs. response variable slope) using GraphPad Prism Software v.5. n=2 for all compounds. The Absolute EC50 was interpolated from the curve fit and is defined as the concentration at which a given compound elicits 50% of the high control response. Compounds failing to elicit a minimum response of 50% are reported as >30 μM. For compounds run in duplicate or n higher than 2, the result herein given is the geometric mean of the several results obtained.

`COc1cc(-c2nc(N)c3c(n2)NC(=O)C3(C)C(N)=O)nn1Cc1ccccc1F` (stereo not drawn) [Compound I-2] and `CCOc1cc(-c2nc(N)c3c(n2)NC(=O)C3(C)C(N)=O)nn1Cc1ccccc1F` (stereo not drawn) [Compound I-28] cannot be ordered by EC50: 101 to 1000 nM for the first, no less than 1000 nM for the second.

`O=c1[nH]c(-c2cc(OC(F)F)n(Cc3ccccc3F)n2)ncc1F` [Compound I-4] and `COc1cc(-c2ncc(F)c(=O)[nH]2)nn1Cc1ccccc1F` [Compound I-5] cannot be ordered by EC50: no less than 1000 nM for the first, no less than 1000 nM for the second.

`COc1cc(-c2nccc(N)n2)nn1Cc1ccccc1F` [Compound I-6] and `COc1cc(-c2ncc(F)c(N(C)C)n2)nn1Cc1ccccc1F` [Compound I-12] cannot be ordered by EC50: no less than 1000 nM for the first, no less than 1000 nM for the second.

`COc1cc(-c2nc(N)c3c(n2)NC(=O)C3(C)C(N)=O)nn1CCC(F)(F)F` (stereo not drawn) [Compound I-7] and `CCOC(=O)C1(C)C(=O)Nc2nc(-c3cc(OC)n(CCC(F)(F)F)n3)nc(N)c21` (stereo not drawn) [Compound I-14] cannot be ordered by EC50: no less than 1000 nM for the first, no less than 1000 nM for the second.

`CCOC(=O)C1(C)C(=O)Nc2nc(-c3cc(OC(C)C)n(Cc4ccccc4F)n3)nc(N)c21` (stereo not drawn) [Compound I-8] and `CCOC(=O)C1(C)C(=O)Nc2nc(-c3cc(OCC)n(Cc4ccccc4F)n3)nc(N)c21` (stereo not drawn) [Compound I-46] cannot be ordered by EC50: no less than 1000 nM for the first, 101 to 1000 nM for the second.

`COc1cc(-c2ncc(F)c(NCC(=O)O)n2)nn1Cc1ccccc1F` [Compound I-9] and `COc1cc(-c2ncc(F)c(NCC(N)=O)n2)nn1Cc1ccccc1F` [Compound I-11] cannot be ordered by EC50: no less than 1000 nM for the first, no less than 1000 nM for the second.

`CC1(C(N)=O)C(=O)Nc2nc(-c3nn(Cc4ccccc4F)c(=O)[nH]3)nc(N)c21` (stereo not drawn) [Compound I-10] and `CCOC(=O)C1(C)C(=O)Nc2nc(-c3nn(Cc4ccccc4F)c(=O)[nH]3)nc(N)c21` (stereo not drawn) [Compound I-21] cannot be ordered by EC50: no less than 1000 nM for the first, no less than 1000 nM for the second.

`COc1cc(-c2ncc(F)c(NCCO)n2)nn1Cc1ccccc1F` [Compound I-13] and `COc1cc(-c2ncc(F)c(NCCCCC(=O)O)n2)nn1Cc1ccccc1F` [Compound I-32] cannot be ordered by EC50: no less than 1000 nM for the first, 101 to 1000 nM for the second.

`COc1cc(-c2nc3c(c(=O)[nH]2)=C(C)C(=O)N=3)nn1Cc1ccccc1F` [Compound I-15] and `CCOC(=O)C1(C)C(=O)Nc2nc(-c3cc(OC)n(Cc4ccccc4F)n3)[nH]c(=O)c21` (stereo not drawn) [Compound I-35] cannot be ordered by EC50: no less than 1000 nM for the first, 101 to 1000 nM for the second.

`COc1cc(-c2nnc3c(n2)NC(=O)C3(C)C)nn1Cc1ccccc1F` [Compound I-16] and `COC(=O)NC1(C)C(=O)Nc2nc(-c3cc(OC)n(Cc4ccccc4F)n3)[nH]c(=O)c21` (stereo not drawn) [Compound I-26] cannot be ordered by EC50: 101 to 1000 nM for the first, no less than 1000 nM for the second.

`COc1nc(-c2nc(N)c3c(n2)NC(=O)C3(C)C(N)=O)nn1Cc1ccccc1F` (stereo not drawn) [Compound I-17] and `CCOC(=O)C1(C)C(=O)Nc2nc(-c3nc(OC)n(Cc4ccccc4F)n3)nc(N)c21` (stereo not drawn) [Compound I-30] cannot be ordered by EC50: no less than 1000 nM for the first, no less than 1000 nM for the second.

`Cn1c(-c2nc(N)c3c(n2)NC(=O)C3(C)C(N)=O)nn(Cc2ccccc2F)c1=O` (stereo not drawn) [Compound I-18] and `CCOC(=O)C1(C)C(=O)Nc2nc(-c3nn(Cc4ccccc4F)c(=O)n3C)nc(N)c21` (stereo not drawn) [Compound I-29] cannot be ordered by EC50: no less than 1000 nM for the first, no less than 1000 nM for the second.

`COc1cc(-c2ncc(F)c(NCc3cc(=O)[nH]o3)n2)nn1Cc1ccccc1F` [Compound I-19] and `COc1cc(-c2ncc(F)c(NCC(O)(C(N)=O)C(F)(F)F)n2)nn1Cc1ccccc1F` (stereo not drawn) [Compound I-20] cannot be ordered by EC50: no less than 1000 nM for the first, 101 to 1000 nM for the second.

`COc1cc(-c2ncc(F)c(N3CCCC3)n2)nn1Cc1ccccc1F` [Compound I-22] and `COc1cc(-c2ncc(F)c(N3CCCCC3)n2)nn1Cc1ccccc1F` [Compound I-31] cannot be ordered by EC50: no less than 1000 nM for the first, no less than 1000 nM for the second.

`COc1cc(-c2ncc(F)c(N3CCOCC3)n2)nn1Cc1ccccc1F` [Compound I-23] and `COc1cc(-c2ncc(F)c(N3CCNCC3)n2)nn1Cc1ccccc1F` [Compound I-24] cannot be ordered by EC50: no less than 1000 nM for the first, no less than 1000 nM for the second.

`COc1c(C#N)c(-c2nc(N)c3c(n2)NC(=O)C3(C)C(N)=O)nn1Cc1ccccc1F` (stereo not drawn) [Compound I-25] and `COc1c(C)c(-c2nc(N)c3c(n2)NC(=O)C3(C)C(N)=O)nn1Cc1ccccc1F` (stereo not drawn) [Compound I-27] cannot be ordered by EC50: 101 to 1000 nM for the first, no less than 1000 nM for the second.

`COc1cc(-c2ncc(F)c(N3CCC(S(N)(=O)=O)CC3)n2)nn1Cc1ccccc1F` [Compound I-33] and `COc1cc(-c2ncc(F)c(N3CC(C)C(C(=O)O)C3)n2)nn1Cc1ccccc1F` (stereo not drawn) [Compound I-36] cannot be ordered by EC50: no less than 1000 nM for the first, no less than 1000 nM for the second.

`CC1(C)C(=O)Nc2nc(-c3cc(OC(F)F)n(Cc4cccc(F)c4F)n3)nc(N)c21` [Compound I-34] and `CC1(C(N)=O)C(=O)Nc2nc(-c3cc(OC(F)F)n(Cc4cccc(F)c4F)n3)nc(N)c21` (stereo not drawn) [Compound I-53] fall in the same range of EC50: 101 to 1000 nM for the first, 101 to 1000 nM for the second.

`COc1nc(-c2nc(N)c3c(n2)NC(=O)C3(C)C(=O)NC2CC2)nn1Cc1ccccc1F` (stereo not drawn) [Compound I-37] and `Cn1c(-c2nc(N)c3c(n2)NC(=O)C3(C)C(=O)NC2CC2)nn(Cc2ccccc2F)c1=O` (stereo not drawn) [Compound I-38] cannot be ordered by EC50: no less than 1000 nM for the first, no less than 1000 nM for the second.

`CC1(C(=O)NC2CC2)C(=O)Nc2nc(-c3cc(OC(F)F)n(Cc4cccc(F)c4F)n3)ncc21` (stereo not drawn) [Compound I-40] and `CC1(C(=O)NC2CC2)C(=O)Nc2nc(-c3cc(OC(F)F)n(Cc4cccc(F)c4F)n3)nc(N)c21` (stereo not drawn) [Compound I-54] fall in the same range of EC50: 101 to 1000 nM for the first, 101 to 1000 nM for the second.

`CC1(C(N)=O)C(=O)Nc2nc(-c3cc(OC(F)F)n(CCC(F)(F)C(F)(F)F)n3)nc(N)c21` (stereo not drawn) [Compound I-41] and `CC1(C(=O)NC2CC2)C(=O)Nc2nc(-c3cc(OC(F)F)n(CCC(F)(F)C(F)(F)F)n3)nc(N)c21` (stereo not drawn) [Compound I-50] cannot be ordered by EC50: no less than 1000 nM for the first, no less than 1000 nM for the second.

`C[C@H]1CCCN(c2nc(-c3cc(OC(F)F)n(Cc4ccccc4F)n3)ncc2F)[C@H]1C(=O)O` [Compound I-42] and `CCOC(=O)C1(C)C(=O)Nc2nc(-c3cc(OC(F)F)n(Cc4cccc(F)c4F)n3)nc(N)c21` (stereo not drawn) [Compound I-52] fall in the same range of EC50: 101 to 1000 nM for the first, 101 to 1000 nM for the second.

`COc1cc(-c2nc3c(c(=O)[nH]2)C(C)(C(=O)NC2CC2)C(=O)N3)nn1Cc1ccccc1F` (stereo not drawn) [Compound I-43] and `CC1(C(N)=O)C(=O)Nc2nc(-c3cc(O)n(Cc4ccccc4F)n3)nc(N)c21` (stereo not drawn) [Compound I-48] cannot be ordered by EC50: no less than 1000 nM for the first, no less than 1000 nM for the second.

`CCOC(=O)C1(C)C(=O)Nc2nc(-c3nn(Cc4ccccc4F)c(OC)c3C)nc(N)c21` (stereo not drawn) [Compound I-45] and `COc1cc(-c2ncc(NC(=O)OCc3ccccc3)c(=O)[nH]2)nn1Cc1ccccc1F` [Compound I-47] cannot be ordered by EC50: 101 to 1000 nM for the first, no less than 1000 nM for the second.
